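Cultured in 96-well plates, cells were exposed to test compound for 48 hours across five concentrations. GI50 is the concentration that inhibits growth by half. TGI denotes the concentration required for complete inhibition of growth.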 Bounds are passed on as bounds.

Common to all, as to assay: NCI tumour cell line growth inhibition, 48 h
For test [1], the system named is MDA-MB-435.
Test [2] concerns OVCAR-5 ovarian.
Test [3] relates to U251 CNS.
The test system of test [4] is KM12 colon.
Test [5] deals with SK-MEL-28 melanoma.
Test [6] has as its system UACC-257 melanoma.
In test [7] the test system is IGROV1 ovarian.
In test [8] the test system is HCT-116 colon.
In test [9] the test system is SF-539 CNS.
The test system of test [10] is MALME-3M melanoma.

Take `Cc1c(-c2ccccc2)c(C#N)c2nnn(-c3ccccc3)c(=O)n12`: the TGI in [1], in test [2], in test [3], in test [4], in test [5] and in test [6] was greater than 100 µM throughout. The TGI in [7], in test [8], in test [9] and in [10] was greater than 100 µM in each case.

`COC12C=C/C(=C(/C(=O)OCc3ccncn3)C(=O)CCCCCCCCC3(OC)C=C/C(=C(/C(=O)OCc4ccncn4)C(=O)CCCCCCCC1)O3)O2`: the GI50 in test [1] is 0.194 µM; in test [2], 0.334 µM; in [3], 0.335 µM; in test [4], 0.227 µM; in [5] it was 0.317 µM; in test [6] it was 0.261 µM. Also, the GI50 is 0.418 µM in [7], 0.266 µM in [8], 0.354 µM in test [9] and 0.228 µM in test [10]. For the same compound, the TGI came out at 0.405 µM in test [1]; 4.81 µM in test [2]; 1.54 µM in [3]; 0.499 µM in test [4]; 2.51 µM in test [5]; 0.882 µM in [6]. For the same compound, the TGI came to 4.46 µM in [7], 1.09 µM in [8], 2.66 µM in test [9] and 0.629 µM in [10].

On to `O=C(O)Cc1ccc(Oc2nc3ccccc3nc2-c2cccs2)cc1`, for which the TGI in test [1], in test [2], in test [3], in test [4], in [5] and in [6] was greater than 100 µM throughout. For the same compound, the TGI in test [7], in [8], in test [9] and in test [10] was greater than 100 µM in each case.

For the compound `[O-][n+]1onc2c3nn(-c4ccccc4)nc3ccc21`, the TGI is greater than 100 µM in test [1]; greater than 100 µM in test [2]; greater than 100 µM in test [3]; 48.5 µM in test [4]; greater than 100 µM in [5]; greater than 92.2 µM in test [6]. The TGI in [7], in test [8], in [9] and in [10] was greater than 100 µM throughout.

On to `O=S(=O)(c1cc(Cl)ccc1Cl)N1CCN(S(=O)(=O)c2cc(Cl)ccc2Cl)CC1`, for which the TGI is greater than 100 µM in test [1]; 30 µM in [2]; greater than 100 µM in test [3]; greater than 100 µM in test [4]; greater than 100 µM in test [5]; greater than 100 µM in test [6]. Also, the TGI in test [7], in [8], in [9] and in [10] was greater than 100 µM throughout.

Take `Cc1cc(NS(=O)(=O)c2ccc(NC(=O)c3ccc4nc5ccccc5c(Nc5ccc(S(=O)(=O)N=C(N)N)cc5)c4c3)cc2)no1`: the TGI in test [1] came to 35.3 µM; in test [2] it was 31.8 µM; in [3], 30 µM; in [4], 32.2 µM; in test [5], 35 µM; in test [6], 67.1 µM. Further, the TGI in [7] is 38.6 µM; in [8], 35.6 µM; in test [9], 44.9 µM; in [10] it was 29.4 µM.

`CC(C)CC(=O)NC(Nc1ccc(S(=O)(=O)Nc2ncccn2)cc1)(C(F)(F)F)C(F)(F)F`: the TGI in test [1], in test [2], in test [3], in test [4], in test [5] and in test [6] was greater than 100 µM each time. In addition, the TGI in test [7], in [8], in test [9] and in [10] was greater than 100 µM in each case.

As for `Oc1nc(N/N=C/c2c[nH]c3ccccc23)[nH]c1/C=C1\C=Nc2ccccc21`, the TGI was 62.4 µM in test [1]; greater than 100 µM in test [2]; 32.3 µM in test [3]; 44.8 µM in test [4]; 54.1 µM in test [5]; 79.4 µM in [6]. The TGI was 41.2 µM in [7], 36.7 µM in test [8], 48.4 µM in [9] and 33.8 µM in test [10].

Consider `CC1(C)C2CCC1(CS(=O)(=O)Nc1ccccc1)C(=O)C2` (stereo not given), for which the TGI in test [1], in [2], in test [3], in test [4], in test [5] and in [6] was greater than 100 µM each time. The TGI in test [7], in [8], in test [9] and in [10] was greater than 100 µM in each case.

`CC(=O)N1N=C(c2c(O)ccc3ccccc23)CC1C(=O)c1ccco1` (stereo not given): the TGI in test [1], in [2], in test [3], in [4], in [5] and in [6] was greater than 100 µM in each case. In addition, the TGI in [7] was greater than 100 µM; in test [8], 50.3 µM; in test [9] it was 66.9 µM; in test [10], greater than 100 µM.

`O=C1Cc2c(-c3ccc(Cl)cc3)cc(-c3ccccc3)nc2-c2ccccc2N1`: the TGI in test [1] was greater than 57.1 µM; in test [2], greater than 81 µM; in [3], 17.8 µM; in [4], greater than 100 µM; in test [5], 34.8 µM; in test [6] it was greater than 100 µM. For the same compound, the TGI in test [7] is greater than 50.7 µM; in test [8] it was 15.3 µM; in test [9], 25.4 µM; in test [10], greater than 64 µM.

As for `O=C(O)CC(NC(=O)Nc1ccc([N+](=O)[O-])cc1)C(=O)Nc1ccc([N+](=O)[O-])cc1` (stereo not given), the TGI in test [1], in [2], in test [3], in [4], in test [5] and in [6] was greater than 100 µM throughout. The TGI in test [7], in test [8], in [9] and in [10] was greater than 100 µM throughout.

The record behind these values is PubChem BioAssay (NCI).
